How the values were obtained:
[1] = Photoisomerization reaction assessed by time-dependent changes of absorption spectra; format: physicochemical; settings: 25 μM in methanol, dark place; for photoisomerization from cis form to trans form: visible light of 550 nm; for photoisomerization from trans form to cis form: visible light of 420 nm
Procedure: A stock solution was prepared by dissolving the 8-phenylazoguanosine obtained in (3-1) in methanol so that the 8-phenylazoguanosine presented at a concentration of 25 μM in the stock solution. In a quartz cell measuring 1 cm per side was placed 200 μl out of the stock solution thus prepared. The quartz cell was irradiated with visible light having a wavelength of 420 nm in a dark place, so that photoisomerization of the trans-8-phenylazoguanosine was assessed by measuring time-dependent changes of absorption spectra of the 8-phenylazoguanosine. In this assessment, MAX-301 manufactured by Asahi Spectra Co., Ltd. was used as a light source, and M.C.420/10 nm manufactured by the same manufacturer was used as a filter. As shown in FIG. 4 (in the upper part), along with trans to cis photoisomerization of the trans-8-phenylazoguanosine, a peak of an absorbance at 420 nm decreased, and an absorbance at 500 to 600 nm increased.
Out of the stock solution prepared in (3-2-1), 200 μl of stock solution was isomerized to the cis form as described previously, after which the resulting product was placed in a quartz cell measuring 1 cm per side. The quartz cell was irradiated with visible light having a wavelength of 550 nm in a dark place, so that photoisomerization of cis-8-phenylazoguanosine was assessed by measuring time-dependent changes of absorption spectrum of the 8-phenylazoguanosine. […] As shown in FIG. 4 (in the lower part), along with trans photoisomerization of the cis-8-phenylazoguanosine, a peak of an absorbance at 420 nm increased, and an absorbance at 500 to 600 nm decreased.
A stock solution was prepared by dissolving the trans-8-(p-toluoylazo)guanosine obtained in (4-1) in methanol so that the trans-8-(p-toluoylazo) guanosine presented at a concentration of 25 μM in the stock solution. […] The quartz cell was irradiated with visible light having a wavelength of 420 nm in a dark place, so that photoisomerization of the trans-8-(p-toluoylazo)guanosine was assessed by measuring time-dependent change of absorption spectra of the trans-8-(p-toluoylazo)guanosine. […] As shown in FIG. 6 (in the upper part), along with cis photoisomerization of the trans-8-(p-toluoylazo)guanosine, a peak of an absorbance at 420 nm decreased, and an absorbance at 500 to 600 nm increased.
Out of the stock solution prepared in (4-2-1), 200 μl of stock solution was isomerized to the cis form as described previously, after which the resulting product was placed in a quartz cell measuring 1 cm per side. The quartz cell was irradiated with visible light having a wavelength of 550 nm in a dark place, so that photoisomerization of cis-8-(p-toluoylazo) guanosine was assessed by measuring time-dependent changes of absorption spectrum of the cis-8-(p-toluoylazo)guanosine. […]

[2] = Alternate cis-trans photoisomerization, durability against reversible photoisomerization (absorbance 420 nm); format: physicochemical; settings: 25 μM in methanol, alternate 420 nm / 550 nm, each 20 seconds, 30 cycles
Procedure: A stock solution was prepared by dissolving the trans-8-phenylazoguanosine obtained in (3-1) in methanol so that the trans-8-phenylazoguanosine presented at a concentration of 25 μM in the stock solution. In a quartz cell measuring 1 cm per side was placed 200 μl out of the stock solution. The quartz cell was alternately irradiated with visible light having wavelength of 420 nm and with visible light having a wavelength of 550 nm, each for 20 seconds, in a dark place. While this process was repeated in 30 cycles, an absorbance (420 nm) was measured. From the result of the measurement, durability of the compound against reversible photoisomerization was assessed. MAX-301 manufactured by Asahi Spectra Co., Ltd. was used as a light source, and M.C.420/10 nm and M.C.550/10 nm manufactured by the same manufacturer were used as filters.

| Compound | photoisomerization from cis form to trans form [1] | photoisomerization from trans form to cis form [1] | other results |
| --- | --- | --- | --- |
| Cc1ccc(/N=N\c2nc3c(=O)[nH]c(N)nc3n2[C@@H]2O[C@H](CO)[C@H](O)C2O)cc1 (stereo partly drawn) | photoisomerized nearly completely to the trans form | – | – |
| Cc1ccc(/N=N/c2nc3c(=O)[nH]c(N)nc3n2[C@@H]2O[C@H](CO)[C@H](O)C2O)cc1 (stereo partly drawn) | – | photoisomerized nearly completely to the cis form | – |
| Nc1nc2c(nc(/N=N\c3ccccc3)n2[C@@H]2O[C@H](CO)[C@H](O)C2O)c(=O)[nH]1 (stereo partly drawn) [cis-8-phenylazoguanosine] | photoisomerized nearly completely to the trans form | – | – |
| Nc1nc2c(nc(/N=N/c3ccccc3)n2[C@@H]2O[C@H](CO)[C@H](O)C2O)c(=O)[nH]1 (stereo partly drawn) [trans-8-phenylazoguanosine] | – | photoisomerized nearly completely to the cis form | – |
| trans-8-phenylazoguanosine | – | – | durability against reversible photoisomerization (decomposition, side-reaction) [2]: no decomposition and side-reaction; trans to cis and cis to trans photoisomerizations on alternate irradiation [2]: alternately took place |

— US9458515B2, “RNA including nucleoside compound, method for regulating amount of protein produced from the RNA, and nucleoside compound” (RIKEN, priority 2010, dated 2016)
